Data reported in patent US6162828A, “Cysteine protease inhibitor” (Takeda Chemical Industries, Ltd., priority 1995, dated 2000).
Where a SMILES comes first, the peptide text is derived from it. [ ]: non-standard residue; d: D form. The star is where a group is joined. Fmoc = O=C(OCC1c2ccccc2-c2ccccc21)*; Aib = CC(C)(N)C(=O)O

Molecular target: T1, ICE (IL-1β converting enzyme), recombinant (Homo sapiens, UniProt P29466)
T1 construct: positions corresponding to molecular weights of 25,000 and 15,800; made in house; host or cells: Sf9 insect cells (baculovirus, pVL-ICE)
T1 sequence (P29466 120-297 limits assumed): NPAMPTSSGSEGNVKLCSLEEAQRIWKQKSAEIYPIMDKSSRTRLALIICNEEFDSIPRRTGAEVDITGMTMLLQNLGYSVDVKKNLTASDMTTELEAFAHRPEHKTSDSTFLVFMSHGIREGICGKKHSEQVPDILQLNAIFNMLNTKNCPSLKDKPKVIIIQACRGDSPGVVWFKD
T1 sequence (P29466 317-404 limits assumed): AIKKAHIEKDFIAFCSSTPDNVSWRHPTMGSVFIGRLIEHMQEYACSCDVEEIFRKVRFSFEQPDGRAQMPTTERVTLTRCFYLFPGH
Test: Determination of ICE-inhibiting activity (fluorogenic substrate Ac-Y-V-A-D-MCA)
Assay type: biochemical
Conditions: recombinant ICE enzyme solution, 37° C. for 20 minutes, read-out: ICE-inhibiting activity in terms of IC50 value
Protocol: Two ml of the ICE expression recombinant virus suspension as prepared in Reference Example 5 was added to the insect cell Sf9 cultured in 2 1 of Sf900 medium containing 5% fetal calf serum (FCS) (1.5×10^6 cells/ml) to cause infection. Post-infection cultivation was conducted at 27° C. in a spinner flask for 4 days. Cultured cells were recovered (hereinafter all operations conducted on ice), washed 3 times with PBS (-), and suspended in a hypotonic buffer (20 mM KCl, 25 mM HEPES, pH 7.4, 5 MM MgCl2, 1 MM EDTA, 1 MM PMSF, 10 μg/ml pepstatin and leupeptine) to 10^8 cells/ml. After the suspension was kept standing on ice for 20 minutes, cells were disrupted (25 times) using a Dounce homogenizer. Disrupted cells were removed via centrifugation; ammonium sulfate was added to the supernatant to 40% saturation; the precipitate fraction was removed via centrifugation. Ammonium sulfate was further added to 80% saturation; the precipitate was recovered. The precipitate was dissolved in buffer A (20 mM KCl, 25 mM HEPES, pH 7.4, 5 mM EDTA, 2 mM DTT, 1 mM PMSF, 0.1% NP-40, 10% glycerol) and dialyzed against buffer A overnight. […]
After completion of the reaction, the fluorescence intensity of free aminomethylcoumarin was determined at a wavelength of 450 nm via excitation at a wavelength of 365 nm, using a fluorometer FCA (produced by Baxter). […]

IC50: 19 nM
SMILES: CC(C)[C@H](NC(=O)OCC1c2ccccc2-c2ccccc21)C(=O)NC(C)(C)C(=O)N[C@H](C=O)CC(=O)O [Example 60, Fmoc-Val-Aib-NH--CH(CHO)CH2 COOH] (Fmoc-Val-[Aib]-Asp-aldehyde)
